Experimental data published in the supplement of paper PMC10307832.

Assays:
Experiment in all cases: relative viability (nuclei count vs DMSO), 5 days (fraction); higher = more cells survive
[1] = compound: COc1cccc2cc(-c3nc([C@H]4CC[C@H](C(=O)O)CC4)n4ncnc(N)c34)[nH]c12 [OSI-027] + Nc1ncn([C@H]2C[C@H](O)[C@@H](CO)O2)c(=O)n1 [Decitabine] (partner 2 µM)
Summary of the method: (§1)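 Relative viability divides the nuclei count in treated wells by that in vehicle wells. Lung cancer cell lines were seeded in 1536-well plates, dosed by pin tool the next day, and fixed and stained after 5 days in one step with final 0.05% Triton X-100, 1% formaldehyde and 1 ug/ml Hoechst. Dosing was a single drug or a fixed anchor-drug dose plus five library-drug doses (not always all listed) in √10 steps, and values are medians of duplicate plates imaged at 4×.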

[2] = compound: COc1cccc2cc(-c3nc([C@H]4CC[C@H](C(=O)O)CC4)n4ncnc(N)c34)[nH]c12 [OSI-027] + O=C(c1cc(Cc2n[nH]c(=O)c3ccccc23)ccc1F)N1CCN(C(=O)C2CC2)CC1 [Olaparib] (partner 8 µM)
Summary of the method: as §1

[3] = compound: COc1cccc2cc(-c3nc([C@H]4CC[C@H](C(=O)O)CC4)n4ncnc(N)c34)[nH]c12 [OSI-027] + NC(=O)Nc1cc(-c2cccc(F)c2)sc1C(=O)N[C@H]1CCCNC1 [AZD7762] (partner 0.2 µM)
Summary of the method: as §1

[4] = compound: Cc1nc(NC(=O)N2CCC[C@H]2C(N)=O)sc1-c1ccnc(C(C)(C)C(F)(F)F)c1 [Alpelisib] + CC(C)C[C@H](NC(=O)[C@H](Cc1ccccc1)NC(=O)c1cnccn1)B(O)O [Bortezomib] (partner 0.002 µM)
Summary of the method: as §1

Cell Line | relative viability ([1]; first compound 0.01 µM) | relative viability ([1]; first compound 0.03162 µM) | relative viability ([1]; first compound 0.1 µM) | relative viability ([1]; first compound 0.3162 µM) | relative viability ([1]; first compound 1 µM) | relative viability ([2]; first compound 0.01 µM) | relative viability ([2]; first compound 0.03162 µM) | relative viability ([2]; first compound 0.1 µM) | relative viability ([2]; first compound 0.3162 µM) | relative viability ([2]; first compound 1 µM) | relative viability ([3]; first compound 0.01 µM) | relative viability ([3]; first compound 0.03162 µM) | relative viability ([3]; first compound 0.1 µM) | relative viability ([3]; first compound 0.3162 µM) | relative viability ([3]; first compound 1 µM) | relative viability ([4]; first compound 0.04 µM) | relative viability ([4]; first compound 0.4 µM) | relative viability ([4]; first compound 1.265 µM) | relative viability ([4]; first compound 4 µM) | relative viability ([4]; first compound 0.1265 µM)
LCLC-97TM1 | 0.256 | 0.23 | 0.195 | 0.174 | 0.22 | 0.59 | 0.438 | 0.325 | 0.281 | 0.347 | 0.245 | 0.301 | 0.371 | 0.276 | 0.18 | 0.682 | 0.86 | 0.384 | 0.237 | 
NCI-H596 | 1.1 | 1.08 | 1.1 | 1.03 | 0.82 | 0.743 | 0.688 | 0.651 | 0.684 | 0.612 | 1.14 | 1.08 | 1.08 | 1.06 | 0.943 | 1.17 | 1.15 | 0.666 | 0.44 | 0.801
BEN | 0.609 | 0.707 | 0.596 | 0.513 | 0.483 | 1.15 | 1.19 | 0.769 | 0.554 | 0.527 | 0.698 | 0.604 | 0.435 | 0.464 | 0.463 | 0.793 | 0.807 | 0.761 | 0.697 | 0.733
LU99A | 0.773 | 0.966 | 0.675 | 0.485 | 0.216 | 0.279 | 0.231 | 0.251 | 0.201 | 0.2 | 0.462 | 0.321 | 0.28 | 0.133 | 0.171 | 1.07 | 1.14 | 0.874 | 0.614 | 1.12
RERF-LC-KJ | 0.617 | 0.664 | 0.668 | 0.538 | 0.426 | 0.829 | 0.866 | 0.82 | 0.798 | 0.496 | 1.05 | 0.742 | 0.871 | 0.748 | 0.452 | 1.1 | 1.32 | 1.01 | 0.934 | 1.08
HARA | 0.529 | 0.432 | 0.558 | 0.422 | 0.346 | 0.771 | 0.499 | 0.841 | 0.616 | 0.352 | 0.27 | 0.301 | 0.36 | 0.419 | 0.365 | 0.976 | 1.34 | 1.01 | 0.766 | 1.09
A-427 | 0.522 | 0.59 | 0.469 | 0.484 | 0.37 | 0.817 | 0.835 | 0.643 | 0.593 | 0.506 | 0.676 | 0.52 | 0.557 | 0.541 | 0.399 | 0.889 | 0.978 | 0.849 | 0.893 | 0.843
NCI-H2347 | 0.639 | 0.635 | 0.621 | 0.577 | 0.454 | 0.599 | 0.536 | 0.598 | 0.492 | 0.344 | 0.683 | 0.733 | 0.756 | 0.595 | 0.299 | 0.784 | 1.12 | 1.08 | 0.876 | 0.849
NCI-H1975 | 0.392 | 0.395 | 0.398 | 0.434 | 0.4 | 0.803 | 0.609 | 0.755 | 0.76 | 0.478 | 0.708 | 0.697 | 0.545 | 0.609 | 0.591 | 0.419 | 0.355 | 0.238 | 0.189 | 0.318
HCC-15 | 0.571 | 0.642 | 0.57 | 0.537 | 0.372 | 0.799 | 0.745 | 0.729 | 0.683 | 0.397 | 1.14 | 1.21 | 1.19 | 1.28 | 0.986 | 1.03 | 1.04 | 0.898 | 0.858 | 0.948
NCI-H23 | 0.296 | 0.336 | 0.305 | 0.278 | 0.268 | 0.339 | 0.341 | 0.3 | 0.141 | 0.188 | 0.231 | 0.259 | 0.26 | 0.253 | 0.215 | 0.941 | 0.773 | 0.559 | 0.766 | 0.941
NCI-H441 | 0.266 | 0.263 | 0.261 | 0.293 | 0.259 | 0.649 | 0.58 | 0.548 | 0.494 | 0.3 | 1.35 | 1.07 | 1.24 | 0.934 | 0.499 | 0.631 | 0.531 | 0.329 | 0.385 | 0.45
NCI-H1734 | 0.559 | 0.595 | 0.503 | 0.265 | 0.417 | 0.656 | 0.597 | 0.599 | 0.566 | 0.401 | 0.619 | 0.532 | 0.537 | 0.408 | 0.251 | 0.896 | 0.943 | 0.623 | 0.518 | 0.814
HCC-366 | 0.345 | 0.367 | 0.381 | 0.265 | 0.228 | 0.331 | 0.386 | 0.417 | 0.386 | 0.219 | 0.393 | 0.325 | 0.216 | 0.285 | 0.217 | 0.974 | 1.02 | 0.82 | 0.419 | 1.05
LXF-289 | 0.378 | 0.355 | 0.379 | 0.367 | 0.349 | 1.07 | 1.05 | 1.13 | 0.971 | 0.625 | 1.06 | 1.02 | 1.23 | 1.15 | 0.959 | 1 | 1.07 | 0.902 | 1.04 | 1.03
ChaGo-K-1 | 0.518 | 0.526 | 0.497 | 0.522 | 0.45 | 0.429 | 0.423 | 0.451 | 0.415 | 0.317 | 0.912 | 0.902 | 0.936 | 0.836 | 0.756 | 0.921 | 1.07 | 0.839 | 0.791 | 
